13 compounds from ChEMBL document CHEMBL1152632, “Synthesis and evaluation of functionalized isoindigos as antiproliferative agents” (Bioorg Med Chem, 2009) can be followed below.

Active and inactive are the calls of the source. No cut-off for these calls is given here.

For one experiment, the system named is K562. Kind of experiment: cells. The conditions noted are these: Homo sapiens, K562, 72 h.
Another experiment has as its system Huh-7. Kind of experiment: Antiproliferative activity against human HuH7 cells after 72 hrs by MTT assay. In kind it is functional, cell-based. The conditions noted are these: Huh-7, 72 h. In general terms: Tetrazolium assays rely on reduction of a dye to a coloured formazan, in cell work by metabolically active cells.
Experiment [1] in a line: Antiproliferative activity against human IMR90 cells after 72 hrs by MTT assay. In kind it is cell-based. The conditions noted are these: IMR-90, 72 h.
The test system of another experiment is HL-60. Nature of the experiment: Antiproliferative activity against human HL60 cells after 5 days by MTT assay. In kind it is functional, cell-based. Conditions: HL-60, 120 h.
Experiment [2] has as its target Cyclin-dependent kinase 2/cyclin A (Homo sapiens) (UniProt P24941+P20248+P78396). Kind of experiment: Inhibition of CDK2/cyclin A at 10 uM by IMAP assay. Type of experiment: protein-complex assay.
Another experiment relates to HCT-116. Kind of experiment: cells. The conditions noted are these: Homo sapiens, HCT-116, 72 h.

Description for HCT-116: Antiproliferative activity against human HCT116 cells after 72 hrs by MTT assay
Description for K562: Antiproliferative activity against human K562 cells after 72 hrs by MTT assay

Take `O=C1Nc2ccccc2/C1=C1\C(=O)N(CCc2ccc([N+](=O)[O-])cc2)c2ccccc21`: the IC50 (usually the concentration that gives 50% inhibition) in the experiment on K562 is more than 30 µM; with Huh-7, 13.3 µM; in experiment [1], 7.5 µM; with HL-60, more than 30 µM; with HCT-116, more than 30 µM. For the same compound, in experiment [2], the inhibition – broadly, how much of the control response was suppressed – was “inactive”.
`O=C1Nc2cc(Br)ccc2/C1=C1/Nc2ccccc2/C1=N\O`: the inhibition in experiment [2] is 70%.
In the case of `O=C1Nc2ccccc2/C1=C1\C(=O)N(Cc2ccccc2)c2ccccc21`, the inhibition result in experiment [2] was “inactive”.
Consider `COc1ccc(CCN2C(=O)/C(=C3/C(=O)Nc4ccccc43)c3ccccc32)cc1`, for which the IC50 stood at 1.4 µM with K562; 7.5 µM in the experiment on Huh-7; 5.4 µM in experiment [1]; 12 µM with HL-60; 11.6 µM in the experiment with HCT-116. Further, the inhibition entry in experiment [2] was “inactive”.
As for `O=C1Nc2ccccc2/C1=C1\C(=O)Nc2ccccc21` [ISOINDIGO], the concentration for half-maximal inhibition (IC50) with K562 was 6.7 µM; in the experiment on Huh-7, 28.9 µM; in experiment [1], 16.3 µM; in the experiment on HL-60, 16.6 µM; in the experiment with HCT-116, more than 30 µM. Further, the inhibition result in experiment [2] was “inactive”.
For the compound `O=C1Nc2ccccc2/C1=C1\C(=O)N(CCc2ccc(O)cc2)c2ccccc21`, the IC50 was more than 30 µM with K562; 19.9 µM in the experiment on Huh-7; more than 30 µM in experiment [1]; more than 30 µM in the experiment with HL-60; more than 30 µM in the experiment with HCT-116. Moreover, the inhibition result in experiment [2] is “inactive”.
On to `CC(=O)Nc1ccc(CCN2C(=O)/C(=C3/C(=O)Nc4ccccc43)c3ccccc32)cc1`, for which the 50% inhibitory concentration (IC50) in the experiment with K562 is more than 30 µM; with Huh-7, 13.3 µM; in experiment [1], 19.5 µM; in the experiment on HL-60 it was more than 30 µM; with HCT-116, more than 30 µM. In addition, the inhibition result in experiment [2] was “inactive”.
In the case of `O=C1Nc2ccccc2C1C1C(=O)Nc2ccccc21` (configuration not stated), the inhibition entry in experiment [2] was “inactive”.
As to `O=Nc1c(-c2c(O)[nH]c3ccccc23)[nH]c2ccccc12` [INDIRUBIN-3-MONOXIME], the 50% inhibitory concentration (IC50) was more than 30 µM in the experiment on K562, 18.2 µM in experiment [1], 15.7 µM with HL-60 and 12 µM in the experiment on HCT-116. The compound also displayed an inhibition in experiment [2] of 70%.
Regarding `CN1C(=O)/C(=C2/C(=O)N(C)c3ccccc32)c2ccccc21`, the inhibition entry in experiment [2] is “inactive”.
For the compound `Cc1ccc(CCN2C(=O)/C(=C3/C(=O)Nc4ccccc43)c3ccccc32)cc1`, the IC50 in the experiment on K562 was more than 30 µM; in the experiment with Huh-7 it was 19 µM; in experiment [1], more than 30 µM; in the experiment with HL-60, more than 30 µM; in the experiment on HCT-116, more than 30 µM. Besides, the inhibition result in experiment [2] is “inactive”.
With `O=C1Nc2ccccc2/C1=C1\C(=O)N(CCc2ccccc2)c2ccccc21`, the IC50 in the experiment on K562 was 7.3 µM; with Huh-7 it was 12 µM; in experiment [1] it was 6.8 µM; with HL-60, 11.9 µM; with HCT-116, 12.2 µM. For the same compound, the inhibition entry in experiment [2] is “inactive”.
On to `O=C1Nc2ccccc2/C1=C1\C(=O)N(c2ccccc2)c2ccccc21`, for which, in experiment [2], the inhibition result was “inactive”.
